The values below come from US9162992B2, “Compounds and compositions for treatment of breathing control disorders or diseases” (GALLEON PHARMACEUTICALS, INC., priority 2010, dated 2015).

Data set [1] relates to spontaneously breathing rats. Kind of data set: Respiratory rate, tidal volume and minute volume in urethane-anesthetized rat. The format is in vivo. The note with it: IV; compared to vehicle. As to the method: Adult male Sprague Dawley rats (250-350 g body weight; Harlan, Indianapolis, Ind., USA) were anesthetized with isoflurane in oxygen. The femoral vein was cannulated to administer compounds. Body temperature was maintained between 36.0 and 37.2° C. throughout the experiment. The cervical portion of the trachea was cannulated and attached to a rat-sized pneumotachometer for measuring tracheal airflow. After surgical instrumentation was complete, isoflurane was slowly discontinued, while urethane (1.8 g/kg) was administered intravenously over 10-15 minutes to maintain anesthesia. Rats were permitted to breathe spontaneously and inspire 100% oxygen. At least 30-45 minutes after discontinuing isoflurane, baseline tracheal airflow was recorded for 20-30 minutes prior to compound administration. Vehicle and test compound were administered intravenously over 15-25 seconds and at a constant volume (1 mL/kg). At least 15-min elapsed between each dose of compound administered. Tracheal airflow was recorded continuously before, during and after compound administration. Tidal volume was derived from the integral of airflow, and respiratory rate was derived from the number of inspiratory cycles per minute. Minute volume was calculated as the product of tidal volume and respiratory rate (FIG. 32).

Data set [2] addresses T1, rat KCNK3/TASK-1 (Rattus norvegicus, UniProt O54912).
T1 construct: expressed in transfected cells; host or cells: CHO cells (tetracycline-inducible)
Kind of data set: Thallium flux through rat TASK-1 (KCNK3-CHO cells). The format is cell-based. The note with it: Tl+ flux; 3 nM to 30 μM; read-out: rTASK-1 IC50. How it is done: (§1) CHO cells expressing recombinant tetracycline-inducible rat KCNK3/TASK-1 (KCNK3-CHO cells) were plated in poly-D-lysine coated 384-well plates at a density of 6,000 cells/well (50 μl/well of 120,000 cells/mL) and allowed to incubate for 72 hrs in the presence of 5% CO2 and 1 μg/mL tetracycline at 30° C. HEK cells expressing recombinant tetracycline-inducible human KCNK9/TASK-3 (KCNK9-HEK cells) were plated at a density of 15,000 cells per well (50 μl/well, 300,000 cells/mL) and incubated overnight at 37° C. and 5% CO2 in the presence of 1 μg/mL tetracycline.
(§2) Drug plates were generated from 10 mM 100% DMSO mother plates. Compounds were transferred to 384-well drug plates and titrated with sequential 1:3 dilutions in 100% DMSO for a total of 9 dilutions. A dilution plate is made by taking 2.4 μl from the mother plate and adding to […] of assay buffer for a 12% DMSO dilution plate. From this dilution plate, a final daughter plate is generated by taking 1 μA of the dilution plate and adding to 40 μA of assay buffer for a final DMSO concentration of 0.3%. Each compound was evaluated in duplicate and the concentration range evaluated was 3 nM to 30 μM.
(§3) When thallium was added to extracellular solution with a stimulus to open channels, Tl^+ flowed down its concentration gradient into the cells and channel activity was detected with an indicator dye, FluxOR™, that increased in cytosolic fluorescence. The FluxOR™ indicator dye was loaded into cells as a membrane permeable acetoxymethyl ester. On the day of each assay, FluxOR™ assay buffer was made fresh from Hank's Balanced Saline Solution (HBSS) buffered with 20 mM HEPES and pH adjusted to 7.4 with NaOH. Dye loading solution was prepared per manufacturer's instructions, and 25 μl of dye solution applied to each well with a multidropper after plating medium was removed manually from cells. Dye was allowed to load for 90 minutes at room temperature in the dark.
(§4) After the 90 min dye loading incubation and subsequent manual dye removal, 24 μl of the drug daughter plate was transfer to cell plates by a cybi-well system and then incubated at room temperature for 20 minutes to allow for equilibration within wells. Stimulation buffer was prepared from 5× chloride-free buffer, thallium, and potassium sulfate containing 5 times the desired final assay concentration of 10 mM K^+ 2.8 mM Tl^+. Cell plates were then transferred to an FDSS 6000 kinetic imaging plate reader (Hamamatsu). Fluorescence at 525 nm (excitation 488 nm) was measured for 10 seconds at 1 Hz to establish baseline for the entire plate. After baseline was established, 6 μl/well of stimulation buffer was added and fluorescence signal recorded for another 140 seconds.
(§5) From the fluorescence signals in the absence and presence of Galleon compounds, Inhibitory concentration curves were plotted and IC50 values were estimated using a curve fitting algorithm.

Data set [3] concerns the target T2, human KCNK9/TASK-3 (Homo sapiens, UniProt Q9NPC2).
T2 construct: expressed in transfected cells; host or cells: HEK cells (tetracycline-inducible)
Kind of data set: Thallium flux through human TASK-3 (KCNK9-HEK cells). It is filed as cell-based. As to conditions: Tl+ flux; 3 nM to 30 μM; read-out: hTASK-3 IC50. How it is done:
as §1, §2, §3, §4, §5

For data set [4], the system named is spontaneously breathing rats. Kind of data set: Minute ventilation (MV) and cardiovascular parameters in naive rats. The format is in vivo, rat. Also noted: unit not given here. The note with it: 1 mpk IV; 15/65/20; pH 5. As to the method: All surgical procedures were performed under anesthesia induced by 2% isoflurane in compressed medical grade air. With rats in supine position, the right femoral vein was catheterized using polyethylene tubing (PE-50). This catheter was used for fluid and drug administration. Simultaneously, the right femoral artery was also catheterized for monitoring blood pressure and heart rate. In order to measure the respiratory parameters in spontaneously breathing rats, trachea was intubated using 13 gauge tracheal tube (2.5 mm ID, Instech Solomon, Pa.).
After establishing a stable base-line at 1.5% isoflurane, compounds (typically at a dose of 1 mpk) were administered IV, and ventilatory parameters were generated from spontaneously breathing rats, along with cardiovascular output (mean arterial pressure (MAP) and heart rate). Maximum peak minute ventilatory (MV) responses (MPR), along with changes in minute ventilation versus baseline (AMV) were obtained as shown in the tables below.

The nature of data set [5]: Solubility of process impurity (observation). It is filed as physicochemical. The text has this: Under certain conditions where the compounds of the present invention and their synthetic intermediates are exposed to acidic or alkaline aqueous environments, the bond between the aromatic heterocycle and the ring substituents may be susceptible to hydrolytic cleavage. For example, in the intermediates to compounds of formula (II-a), a halo substituent in the 2 position (Schemes 3 and 4) may be hydrolytically replaced with a hydroxyl group to yield N-(4,6-Bis(n-propylamino)-1,3,5-triazin-2-ol (CLXXVIII). Similarly, the amine substituents of compounds of formula (II-a) may be displaced by a hydroxyl group. Without wishing to be bound by theory, a series of chemical changes may occur to enable this substitution, such as a prior oxidation of the appended amine side chain, with hydrolytic replacement by hydroxyl as the final transformation. As a specific non-limiting example, the N,O-dimethylhydroxylamino substituent of N-(4,6-Bis-n-propylamino-[1,3,5]triazin-2-yl)-N,O-dimethyl-hydroxylamine (XXXV) may be partially displaced by hydroxyl during processing in the presence of water, forming (CLXXVIII) as a process impurity. […] It was unexpectedly observed that even at elevated temperatures (CLXXVIII) is very insoluble relative to the active ingredient. Thus, trace quantities of this compound in the API can be problematic in liquid formulations. […]

Where a name gives a salt, the structure may show the parent alone.

T1 sequence (O54912 whole entry): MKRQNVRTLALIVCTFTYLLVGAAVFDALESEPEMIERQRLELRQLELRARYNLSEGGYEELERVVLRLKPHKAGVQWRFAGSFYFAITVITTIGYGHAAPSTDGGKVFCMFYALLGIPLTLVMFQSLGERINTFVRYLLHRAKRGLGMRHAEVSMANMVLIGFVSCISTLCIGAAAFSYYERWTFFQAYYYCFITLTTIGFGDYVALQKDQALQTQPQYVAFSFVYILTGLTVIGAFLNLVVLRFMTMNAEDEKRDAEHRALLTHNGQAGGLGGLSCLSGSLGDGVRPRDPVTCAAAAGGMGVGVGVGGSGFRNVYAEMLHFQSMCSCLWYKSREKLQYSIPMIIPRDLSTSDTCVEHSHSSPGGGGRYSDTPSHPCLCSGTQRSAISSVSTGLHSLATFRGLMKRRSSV
T2 sequence (Q9NPC2 whole entry): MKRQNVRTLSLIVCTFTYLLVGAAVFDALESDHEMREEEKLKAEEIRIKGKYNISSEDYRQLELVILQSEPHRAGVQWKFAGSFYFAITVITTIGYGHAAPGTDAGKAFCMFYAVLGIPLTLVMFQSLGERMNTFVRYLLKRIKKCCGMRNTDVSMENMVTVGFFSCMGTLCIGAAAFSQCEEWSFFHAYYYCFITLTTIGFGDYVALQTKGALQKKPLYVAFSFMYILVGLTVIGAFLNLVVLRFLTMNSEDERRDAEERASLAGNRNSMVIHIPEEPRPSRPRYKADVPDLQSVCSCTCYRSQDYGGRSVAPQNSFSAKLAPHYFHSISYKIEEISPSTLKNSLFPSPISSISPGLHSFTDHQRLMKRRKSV

In turn, `CCCNc1cc(N(C)OC)nc(NCCC)n1` (as salt: hydrogen sulfate) [CXXI, 2,6-Bis-(N-n-propylamino)-[1,3]pyrimidin-4-yl)-N,O-dimethyl-hydroxylamine hydrogen sulfate] displayed a melting point of 123 to 126 °C.
Take `CCCNc1nc(NCCC)nc(NOC)n1.Cl` [XLII, N-(4,6-Bis-n-propylamino-[1,3,5]triazin-2-yl)-O-methyl-hydroxylamine hydrochloride]: the “respiratory rate, tidal volume and minute volume” value in data set [1] is “increased both respiratory rate and tidal volume, and their product minute volume”. Moreover, the IC50 in data set [2] was 0.05 µM; in data set [3], over 30 µM.
As to `CCCNc1nc(NC)nc(NCCC)n1` [CLXXII, N-(2,4-Bis-n-propylamino)-N-(6-methylamino)-[1,3,5]triazine], in data set [4], the “MV MPR” value is 145 and the “MV ΔMV” value was determined as 106. The “respiratory rate, tidal volume and minute volume” value in data set [1] is “increased both respiratory rate and tidal volume, and their product minute volume”. Moreover, the IC50 in data set [2] came to 0.01 µM. In addition, the concentration for half-maximal inhibition (IC50) in data set [3] was over 30 µM.
In the case of `CCCNc1nc(O)nc(NCCC)n1` [CLXXVIII], in data set [5], the “solubility in aqueous environments” value is recorded as “sparingly soluble” and the “solubility in most organic solvents” value is “very low solubility”.
